Columns and labels:
Type in all cases: in vivo
[1] = system: yellow nutsedge (Cyperus esculentus); experiment: Test B pre-/postemergence plant response; settings: for Nutsedge, Yellow plant response rating: 8 g ai/ha
Summary of the method: (§1)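 Preemergence and postemergence (plants 2-18 cm, 1- to 4-leaf stage) applications used test chemicals in a non-phytotoxic solvent with surfactant. Plants were held in a greenhouse 13 to 15 days, then rated visually against controls on a 0-100 scale (0 no effect, 100 complete control).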

[2] = system: catchweed bedstraw (Galium aparine); experiment: Test B pre-/postemergence plant response; settings: Preemergence
Summary of the method: as §1

[3] = system: blackgrass (Alopecurus myosuroides); experiment: Test B pre-/postemergence plant response
Summary of the method: as §1

[4] = system: morningglory (Ipomoea coccinea); experiment: Test A pre-/postemergence plant response
Summary of the method: (§2)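 Seeds in loam soil/sand blend treated preemergence by directed soil spray, with simultaneous postemergence spray on 2–10 cm plants at one- to two-leaf stage; compounds in non-phytotoxic solvent with surfactant. Injury visually rated versus untreated controls after about 10 days in greenhouse, 0 (no effect) to 100 (complete control).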

[5] = system: large crabgrass (Digitaria sanguinalis); experiment: Test A pre-/postemergence plant response
Summary of the method: as §2

[6] = system: wheat (Triticum aestivum); experiment: Test A pre-/postemergence plant response
Summary of the method: as §2

[7] = system: velvetleaf (Abutilon theophrasti); experiment: Test A pre-/postemergence plant response
Summary of the method: as §2

[8] = system: barnyardgrass (Echinochloa crus-galli); experiment: Test A pre-/postemergence plant response
Summary of the method: as §2

corn (Zea mays) = experiment: Test A pre-/postemergence plant response
Summary of the method: as §2

[9] = system: pigweed (Amaranthus retroflexus); experiment: Test A pre-/postemergence plant response
Summary of the method: as §2

[10] = system: giant foxtail (Setaria faberi); experiment: Test A pre-/postemergence plant response
Summary of the method: as §2

[11] = Postemergence, 31 g ai/ha, scale 0 to 100, 0 no effect, 100 complete control
[12] = Postemergence, 62 g ai/ha, scale 0 to 100
[13] = Postemergence, 125 g ai/ha, scale 0 to 100
[14] = Postemergence, 250 g ai/ha, scale 0 to 100
[15] = Preemergence, 31 g ai/ha, 0 to 100 scale, 0 no effect, 100 complete control
[16] = Preemergence, 62 g ai/ha, scale 0 to 100
[17] = Preemergence, 125 g ai/ha, scale 0 to 100
[18] = 31 g ai/ha, 0 to 100 scale, 0 no effect, 100 complete control
[19] = 250 g ai/ha, preemergence, 0-100 scale
[20] = Postemergence, 125 g ai/ha, 0 to 100 scale, 0 no effect, 100 complete control
[21] = Postemergence, 500 g ai/ha, 0 to 100 scale, 0 no effect, 100 complete control
[22] = Preemergence, 125 g ai/ha, 0 to 100 scale (0 no effect, 100 complete control)
[23] = Preemergence, 500 g ai/ha, 0 to 100 scale (0 no effect, 100 complete control)
[24] = Postemergence, 16 g ai/ha, scale 0 to 100
[25] = Postemergence, 62 g ai/ha, scale 0 to 100, 0 no effect, 100 complete control
[26] = Preemergence, 16 g ai/ha, scale 0 to 100 (0 no effect, 100 complete control)
[27] = Postemergence, 31 g ai/ha, 0 to 100 scale (0 no effect, 100 complete control)
[28] = Preemergence, 31 g ai/ha, 0 to 100 scale, 0 is no effect, 100 is complete control

Cc1cc(-c2ccc(Br)cc2)nn1-c1c(O)cnn(C)c1=O [Compound 4]
70: Plant response rating, Wheat [6, 22] | Plant response rating, Corn (corn (Zea mays); [22])
60: Plant response rating, Wheat [6, 20] | Plant response rating, Velvetleaf [7, 21]
90: Plant response rating, Galium ([2]; 250 g ai/ha, scale 0 to 100) | Plant response rating, Blackgrass [3, 11] | Plant response rating, Corn (corn (Zea mays); [20]) | Plant response rating, Corn (corn (Zea mays); [23])
100: Blackgrass plant response rating [3, 19] | Plant response rating, Blackgrass [3, 12] | Plant response rating, Blackgrass [3, 13] | Plant response rating, Blackgrass [3, 14] | Plant response rating, Blackgrass [3, 15] | Plant response rating, Blackgrass [3, 16] | Plant response rating, Blackgrass [3, 17] | Plant response rating, Crabgrass, Large [5, 20] | Plant response rating, Crabgrass, Large [5, 21] | Plant response rating, Crabgrass, Large [5, 22] | Plant response rating, Crabgrass, Large [5, 23] | Plant response rating, Wheat [6, 23] | Plant response rating, Barnyardgrass [8, 20] | Plant response rating, Barnyardgrass [8, 21] | Plant response rating, Barnyardgrass [8, 22] | Plant response rating, Barnyardgrass [8, 23] | Plant response rating, Corn (corn (Zea mays); [21]) | Plant response rating, Foxtail, Giant [10, 20] | Plant response rating, Foxtail, Giant [10, 21] | Plant response rating, Foxtail, Giant [10, 22] | Plant response rating, Foxtail, Giant [10, 23]
80: Plant response rating, Wheat [6, 21]
20: Plant response rating, Morningglory [4, 21] | Plant response rating, Velvetleaf [7, 20] | Plant response rating, Pigweed [9, 21]
0: Plant response rating, Nutsedge, Yellow [1, 11] | Plant response rating, Nutsedge, Yellow [1, 12] | Plant response rating, Nutsedge, Yellow [1, 13] | Plant response rating, Nutsedge, Yellow [1, 14] | Plant response rating, Nutsedge, Yellow [1, 15] | Plant response rating, Nutsedge, Yellow [1, 16] | Plant response rating, Nutsedge, Yellow [1, 17] | Plant response rating, Galium [2, 18] | Plant response rating, Galium ([2]; 62 g ai/ha, scale 0 to 100) | Plant response rating, Morningglory [4, 20] | Plant response rating, Morningglory [4, 22] | Plant response rating, Morningglory [4, 23] | Plant response rating, Velvetleaf [7, 22] | Plant response rating, Pigweed [9, 20] | Plant response rating, Pigweed [9, 22] | Plant response rating, Pigweed [9, 23]
10: Plant response rating, Velvetleaf [7, 23]
85: Plant response rating, Galium ([2]; 125 g ai/ha, scale 0 to 100)

CCc1cc(-c2ccc(Cl)cc2)nn1-c1c(OS(C)(=O)=O)cnn(C)c1=O [Compound 39]
30: Plant response rating, Corn (corn (Zea mays); [28])
40: Blackgrass plant response rating ([3]; Preemergence, 8 g ai/ha, scale 0 to 100) | Plant response rating, Wheat [6, 27] | Plant response rating, Wheat [6, 28]
100: Plant response rating, Blackgrass [3, 25] | Plant response rating, Crabgrass, Large [5, 20] | Plant response rating, Crabgrass, Large [5, 22] | Plant response rating, Barnyardgrass [8, 27] | Plant response rating, Barnyardgrass [8, 20] | Plant response rating, Barnyardgrass [8, 28] | Plant response rating, Barnyardgrass [8, 22] | Plant response rating, Corn (corn (Zea mays); [20]) | Plant response rating, Foxtail, Giant [10, 20] | Plant response rating, Foxtail, Giant [10, 22]
80: Plant response rating, Wheat [6, 20] | Plant response rating, Wheat [6, 22]
90: Plant response rating, Blackgrass [3, 26] | Plant response rating, Blackgrass [3, 15] | Plant response rating, Blackgrass [3, 16] | Plant response rating, Corn (corn (Zea mays); [22]) | Plant response rating, Foxtail, Giant [10, 27] | Plant response rating, Foxtail, Giant [10, 28]
60: Plant response rating, Crabgrass, Large [5, 27] | Plant response rating, Crabgrass, Large [5, 28]
95: Plant response rating, Blackgrass [3, 11]
0: Nutsedge, Yellow plant response rating ([1]; postemergence, 0-100 scale) | Plant response rating, Nutsedge, Yellow [1, 24] | Plant response rating, Nutsedge, Yellow [1, 11] | Plant response rating, Nutsedge, Yellow [1, 25] | Plant response rating, Nutsedge, Yellow [1, 26] | Plant response rating, Nutsedge, Yellow [1, 15] | Plant response rating, Nutsedge, Yellow [1, 16] | Nutsedge, Yellow plant response rating ([1]; Preemergence, scale 0 to 100) | Plant response rating, Galium ([2]; 16 g ai/ha, scale 0 to 100 (0 no effect, 100 complete control)) | Plant response rating, Galium [2, 18] | Plant response rating, Galium ([2]; 62 g ai/ha, scale 0 to 100) | Galium plant response rating ([2]; 8 g ai/ha, scale 0 to 100) | Blackgrass plant response rating ([3]; 8 g ai/ha, postemergence, 0-100 scale) | Plant response rating, Blackgrass [3, 24] | Plant response rating, Morningglory [4, 27] | Plant response rating, Morningglory [4, 20] | Plant response rating, Morningglory [4, 28] | Plant response rating, Morningglory [4, 22] | Plant response rating, Velvetleaf [7, 27] | Plant response rating, Velvetleaf [7, 20] | Plant response rating, Velvetleaf [7, 28] | Plant response rating, Velvetleaf [7, 22] | Plant response rating, Pigweed [9, 27] | Plant response rating, Pigweed [9, 20] | Plant response rating, Pigweed [9, 28] | Plant response rating, Pigweed [9, 22]
70: Plant response rating, Corn (corn (Zea mays); [27])

4-[3-(4-chlorophenyl)-5-methyl-1H-pyrazol-3-yl]-5-hydroxy-2-methyl-3(2H)-pyridazinone [Compound 3]
10: Plant response rating, Velvetleaf [7, 23] | Plant response rating, Pigweed [9, 21]
70: Plant response rating, Wheat [6, 20] | Plant response rating, Wheat [6, 22]
100: Blackgrass plant response rating [3, 19] | Plant response rating, Blackgrass [3, 11] | Plant response rating, Blackgrass [3, 12] | Plant response rating, Blackgrass [3, 13] | Plant response rating, Blackgrass [3, 14] | Plant response rating, Blackgrass [3, 16] | Plant response rating, Blackgrass [3, 17] | Plant response rating, Crabgrass, Large [5, 20] | Plant response rating, Crabgrass, Large [5, 21] | Plant response rating, Crabgrass, Large [5, 22] | Plant response rating, Crabgrass, Large [5, 23] | Plant response rating, Barnyardgrass [8, 20] | Plant response rating, Barnyardgrass [8, 21] | Plant response rating, Barnyardgrass [8, 23] | Plant response rating, Corn (corn (Zea mays); [21]) | Plant response rating, Foxtail, Giant [10, 20] | Plant response rating, Foxtail, Giant [10, 21] | Plant response rating, Foxtail, Giant [10, 22] | Plant response rating, Foxtail, Giant [10, 23]
60: Plant response rating, Morningglory [4, 21]
50: Plant response rating, Morningglory [4, 20] | Plant response rating, Velvetleaf [7, 21]
85: Plant response rating, Galium ([2]; 62 g ai/ha, scale 0 to 100) | Plant response rating, Galium ([2]; 125 g ai/ha, scale 0 to 100) | Plant response rating, Galium ([2]; 250 g ai/ha, scale 0 to 100)
0: Plant response rating, Nutsedge, Yellow [1, 11] | Plant response rating, Nutsedge, Yellow [1, 12] | Plant response rating, Nutsedge, Yellow [1, 13] | Plant response rating, Nutsedge, Yellow [1, 14] | Plant response rating, Nutsedge, Yellow [1, 15] | Plant response rating, Nutsedge, Yellow [1, 16] | Plant response rating, Nutsedge, Yellow [1, 17] | Plant response rating, Nutsedge, Yellow ([1]; Preemergence, 250 g ai/ha, scale 0 to 100) | Plant response rating, Morningglory [4, 22] | Plant response rating, Morningglory [4, 23] | Plant response rating, Velvetleaf [7, 20] | Plant response rating, Velvetleaf [7, 22] | Plant response rating, Pigweed [9, 20] | Plant response rating, Pigweed [9, 22] | Plant response rating, Pigweed [9, 23]
80: Plant response rating, Blackgrass [3, 15] | Plant response rating, Corn (corn (Zea mays); [22])
90: Plant response rating, Wheat [6, 21] | Plant response rating, Wheat [6, 23] | Plant response rating, Barnyardgrass [8, 22] | Plant response rating, Corn (corn (Zea mays); [20]) | Plant response rating, Corn (corn (Zea mays); [23])
